In PubChem BioAssay (NCI):
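Cells were grown in 96-well plates and exposed to each compound for 48 hours at five concentrations; endpoints were interpolated linearly between bracketing concentrations, or set to the highest concentration if not reached. TGI: total growth inhibition.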

Assays:
Test in all cases: DTP human tumour cell line panel, 48 h
A549 NSCLC = system: A549 NSCLC
OVCAR-3 ovarian = system: OVCAR-3 ovarian
HOP-62 NSCLC = system: HOP-62 NSCLC
UACC-257 melanoma = system: UACC-257 melanoma
SK-OV-3 ovarian = system: SK-OV-3 ovarian
MALME-3M melanoma = system: MALME-3M melanoma
RPMI-8226 leukemia = system: RPMI-8226 leukemia
M14 melanoma = system: M14 melanoma
HCT-15 colon = system: HCT-15 colon
OVCAR-4 ovarian = system: OVCAR-4 ovarian
A498 renal = system: A498 renal
OVCAR-5 ovarian = system: OVCAR-5 ovarian
NCI-H23 lung = system: NCI-H23 lung
ACHN renal = system: ACHN renal
NCI-H522 lung = system: NCI-H522 lung
PC-3 prostate = system: PC-3 prostate
MDA-MB-435 = system: MDA-MB-435
T-47D breast = system: T-47D breast
NCI/ADR-RES ovarian = system: NCI/ADR-RES ovarian
MCF7 breast = system: MCF7 breast

Row | Compound | TGI (A549 NSCLC) [µM] | TGI (OVCAR-3 ovarian) [µM] | TGI (HOP-62 NSCLC) [µM] | TGI (UACC-257 melanoma) [µM] | TGI (SK-OV-3 ovarian) [µM] | TGI (MALME-3M melanoma) [µM] | TGI (RPMI-8226 leukemia) [µM] | TGI (M14 melanoma) [µM] | TGI (HCT-15 colon) [µM] | TGI (OVCAR-4 ovarian) [µM] | TGI (A498 renal) [µM] | TGI (OVCAR-5 ovarian) [µM] | TGI (NCI-H23 lung) [µM] | TGI (ACHN renal) [µM] | TGI (NCI-H522 lung) [µM] | TGI (PC-3 prostate) [µM] | TGI (MDA-MB-435) [µM] | TGI (T-47D breast) [µM] | TGI (NCI/ADR-RES ovarian) [µM] | TGI (MCF7 breast) [µM]
1 | CC(=O)OC1CC2C(C)(C)C(=O)C=C[C@]2(C)C2CCC3(C)C(c4ccoc4)[C@@H](O)[C@H]4O[C@]43[C@]12C (some centres not stated) | 85.7 | 31.8 | 42.6 | 41.6 | 42.5 | 51.7 | 67.1 | 37.7 | 31.2 | 38.8 | 49.7 | 50 | 34.4 | 50 | 28 |  |  |  |  | 
2 | C(=NCCCN1CCN(CCCN=Cc2cccc3ccccc23)CC1)c1cccc2ccccc12 | > 100 | > 100 | > 100 | > 100 | > 100 | > 100 | > 100 | > 100 | > 100 | > 100 |  | > 100 | > 100 | > 100 | > 100 | > 100 | 96.8 | > 100 | > 100 | 
3 | C/C=C1\CNC1C(=O)O (configuration not stated) | > 100 | > 100 | > 100 | > 100 | > 100 | > 100 | > 100 |  | > 100 | > 100 | > 100 | > 100 | > 100 | > 100 |  | > 100 | > 100 |  | > 100 | > 100
4 | COC(=O)c1cc(C)ccc1C1CN=NC12Cc1cccc(C)c1C2=O (configuration not stated) | > 100 | > 100 | > 100 | > 100 |  | 67.5 | 54.9 | 38.9 | > 100 | > 100 | > 100 | 96.4 | > 100 | > 100 | 89.6 |  | 61.8 | 35.6 | 77.9 | > 100
5 | CCOC(=O)c1nnsc1NN=C(C)C | > 100 | > 100 | > 100 | > 100 | > 100 | > 100 | > 100 | > 100 | > 100 | > 100 | > 100 | > 100 | > 100 |  | > 100 | > 100 | > 100 | > 100 | > 100 | 
6 | CC(C)n1c(=O)[nH]n(-c2ccccc2)c1=O | > 100 | > 100 | > 100 | > 100 | > 100 | > 100 | > 100 | > 100 | > 100 | > 100 | > 100 | > 100 | > 100 | > 100 | > 100 | > 100 | > 100 |  | > 100 | > 100
7 | Cn1c(=O)n2c(-c3ccccc3)c(-c3ccccc3)n2c1=O | > 100 | > 100 | > 100 | > 100 | > 100 | > 100 |  | > 100 | > 100 | > 100 | > 100 | > 100 | > 100 | > 100 |  | > 100 |  |  | > 100 | > 100
8 | CC(=O)O[C@H]1CC[C@@]2(C)C(=C[C@H](c3ccc(O)cc3)[C@H]3[C@@H]4CC[C@H](OC(C)=O)[C@@]4(C)CC[C@@H]32)C1 | 40.5 | 38.8 | 66.9 | 51.6 | > 100 | 34.2 | 45.8 | 41.3 | 24.8 | 41 | 57.8 | 97.9 | 53.7 | 80.6 |  | 46.2 | 62.6 |  | 31.9 | 57.4
9 | CCOC(=O)C(C(=O)OCC)=C1N[C@H](C(=O)OCC)CS1 | > 100 | > 100 | > 100 | > 100 |  | > 100 | > 100 | > 100 | > 100 | > 100 |  | > 100 | > 100 | > 100 | > 100 |  |  |  |  | 
10 | COC(=O)c1ccc(COC(=O)N2C=CCC2C(=O)O)cc1 (configuration not stated) | > 100 | > 100 | > 100 | > 100 | > 100 | > 100 | > 100 | > 100 | > 100 |  |  | > 100 | > 100 | > 100 | > 100 | > 100 | > 100 |  | > 100 | > 100
11 | O=P(c1ccccc1)(c1ccccc1)c1ccc2c(c1)OCCOCCOCCOCCO2 | > 100 |  | > 100 |  | > 100 | > 100 | > 100 | > 100 | > 100 |  | > 100 |  | > 100 | > 100 | > 100 | > 100 | > 100 | > 100 |  | > 100
12 | c1ccc(CN2CCCCC(Sc3ccccc3)CC2)cc1 (configuration not stated) | > 100 | > 100 | > 100 | > 100 | > 100 | 38.2 | 38.9 | 32 | 33.5 | > 100 | > 100 | 45.1 | 64.3 | > 100 |  |  |  |  |  | 
13 | COC(=O)C(Cc1c(C2Nc3ccccc3C2CC(NC(C)=O)C(=O)OC)[nH]c2ccccc12)NC(C)=O (configuration not stated) | > 100 | > 100 | > 100 | > 100 | > 100 | > 100 | > 100 | > 100 | > 100 |  | > 100 | > 100 | > 100 | > 100 | > 100 | > 100 | > 100 | > 100 | > 100 | 
14 | O=Nc1sc(=N\O)/c(=N/O)sc1NO | > 100 | > 100 | > 100 | > 100 | > 100 | > 100 | > 100 | > 100 | > 100 | > 100 | > 100 | > 100 | > 100 | > 100 | > 100 | > 100 | > 100 |  | > 100 | > 100
15 | NC(=O)NC1=NC(Cc2ccccc2)C(=O)N1Cc1ccccc1 (configuration not stated) | > 100 | > 100 | > 100 | > 100 | > 100 |  | > 100 | > 100 | > 100 | > 100 |  | > 100 | > 100 | > 100 |  |  |  |  |  | 
16 | CC1(C)CCCCCCC2CC2CCCCCC(C)(C)C1=O (configuration not stated) | > 100 | > 100 | > 100 | > 100 | > 100 | > 100 | 70.1 | > 100 | > 100 | > 100 | > 100 | > 100 | > 100 | > 100 | > 100 | > 100 | > 100 | > 100 | > 100 | 
17 | O=[N+]([O-])c1cc(-c2nnc(C34CC5CC(CC(C5)C3)C4)o2)cc([N+](=O)[O-])c1 | > 100 | > 100 | > 100 | > 100 | > 100 | > 100 | > 100 | 70.4 | > 100 | > 100 | > 100 | > 100 | > 100 | > 100 | > 100 | > 100 | 77 | > 100 | > 100 | 
18 | CCOC(=O)N/N=C(\Cc1ccc([N+](=O)[O-])cc1)OCC | > 100 | > 100 | > 100 | > 100 | > 100 |  | > 100 | > 100 | > 100 | > 100 |  | > 100 | > 100 | > 100 | > 100 | > 100 | > 100 |  | > 100 | > 100
19 | COc1cc2c(cc1OC)-c1c(oc3cc(OC4OC(CO)C(O)C(O)C4O)c(OC)cc3c1=O)C(O)O2 (configuration not stated) | > 100 | > 100 | > 100 | > 100 | > 100 | > 100 | > 100 | > 100 | > 100 | > 100 | > 100 | > 100 | > 100 | > 100 | > 100 | > 100 | > 100 |  | > 100 | 
20 | CC1=CC(=O)c2c(C=O)c(O)c(O)c(C(C)C)c2C1=O |  |  | > 100 |  | > 100 | 68.2 | > 62.8 | > 100 | > 100 | 23.8 | 78 | > 92.2 | > 85.5 | 32.6 | 32.4 |  |  |  |  | 
21 | C=C(Br)C(C)(Br)CCC(Br)C(C)(C)Br (configuration not stated) | > 100 |  | 34.9 | > 100 | > 100 | 81.8 | 58.2 | 61.3 | > 100 | > 100 |  | > 100 | > 100 | > 100 | 28.3 |  |  |  |  | 
22 | N#C/C(C(=S)Nc1ccccc1)=C(/N)N1CCCC1 | > 100 | > 100 | > 100 | > 100 |  | > 100 | > 100 | > 100 | > 100 | > 100 | > 100 | > 100 | > 100 | > 100 | > 100 | > 100 | > 100 |  | > 100 | > 100
23 | C=C1CC2CC(=O)C(O)C(C1)C2 (configuration not stated) | > 100 | > 100 | > 100 | > 100 | > 100 |  | > 100 | > 100 | > 100 |  | > 100 | > 100 | > 100 | > 100 | > 100 |  | > 100 | > 100 | > 100 | > 100
24 | COc1ccc2nc3cc([N+](=O)[O-])ccc3c(Nc3ccc(S(=O)(=O)N=C(N)N)cc3)c2c1 | > 100 | 72.6 | > 100 | > 100 | > 100 | 28.5 | 42.6 | > 100 | > 100 | > 100 | > 100 | > 100 | > 100 | > 100 | 41.3 | > 100 | > 100 | 88.7 |  | 96.4
25 | CC(=O)c1ccc(NC(=O)C(=O)C(C(=O)c2ccc(Cl)c(Cl)c2)C2OC(=O)c3ccccc32)cc1 (configuration not stated) | 58.2 | 42.6 | 45.3 | > 100 | > 100 | 24.9 |  | 41 | 34.7 | > 100 | 37.6 | 71.5 | 32.2 | 45.5 | 22.1 |  |  |  |  | 
26 | NCCCCN(CCCN)Cc1ccc2ccccc2c1 | > 100 |  |  | > 100 | > 100 | > 100 | > 100 | > 100 | > 100 | > 100 | > 100 | > 100 | > 100 | 53.8 | 37.6 |  | > 100 | > 100 | > 100 | > 100
27 | Cc1c(C(=O)/C=C/c2c(Cl)cccc2Cl)c(=O)n(-c2ccccc2)n1C | 74.9 | 73.5 |  | > 100 | > 100 | > 100 |  |  | > 100 |  | 98.4 | > 100 |  | > 100 | 48.5 |  |  |  |  | 
28 | CSc1nc2c(c(=O)[nH]1)N=C(c1ccc(Cl)cc1)CC(c1ccccc1)N2 (configuration not stated) | 26.4 | 28.5 | 31.7 | 34.3 |  | 42.8 | 40.1 | 29.9 |  | 23.6 | > 100 | 34.2 | 30 | 29 | 29.4 | 45.3 | 38.3 |  | 29.5 | 33.2
